This is an account of results in patent US20140315956A1, “SMALL MOLECULE INHIBITORS OF IL-6 AND USES THEREOF” (NATIONWIDE CHILDREN'S HOSPITAL, priority 2011, published 2014).

Experiment [1] deals with nuclear translocation of STAT3 in MCF-7 cells. The experiment is described as follows: Immunofluorescence of IL6-activated STAT3 nuclear translocation in MCF-7 cells. Format: cell-based.
Experiment [2] addresses T1, gp130 extracellular domain (recombinant gp130-Fc-HA) (Homo sapiens, UniProt P40189).
T1 construct: purified gp130 (amino residue 18-615); made in house; host or cells: HEK293T (plasmid from Dr. John J. Krolewski)
T1 sequence (P40189 18-615): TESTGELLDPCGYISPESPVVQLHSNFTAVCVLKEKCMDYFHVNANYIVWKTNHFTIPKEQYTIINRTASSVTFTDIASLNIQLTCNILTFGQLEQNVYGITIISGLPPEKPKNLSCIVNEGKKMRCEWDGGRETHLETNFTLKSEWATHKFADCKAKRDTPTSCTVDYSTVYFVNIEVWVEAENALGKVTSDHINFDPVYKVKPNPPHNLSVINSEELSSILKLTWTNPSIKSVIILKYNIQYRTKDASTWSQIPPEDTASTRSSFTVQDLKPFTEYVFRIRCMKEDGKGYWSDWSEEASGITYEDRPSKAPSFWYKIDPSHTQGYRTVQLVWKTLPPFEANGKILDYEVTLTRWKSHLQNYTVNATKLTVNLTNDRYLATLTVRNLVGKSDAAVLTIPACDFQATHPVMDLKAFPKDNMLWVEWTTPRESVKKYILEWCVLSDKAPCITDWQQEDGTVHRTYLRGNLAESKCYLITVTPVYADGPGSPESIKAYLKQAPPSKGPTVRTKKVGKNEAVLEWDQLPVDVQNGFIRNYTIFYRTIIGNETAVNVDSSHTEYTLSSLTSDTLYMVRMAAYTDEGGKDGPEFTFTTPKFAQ
The experiment is described as follows: Surface plasmon resonance direct binding to gp130-Fc-HA. Conditions: for binding in SPR direct binding assay, comparison in words: relative to MDL-A or to other analogues. Here is the method:
HEK293T cells were grown in media containing DMEM+10% fetal bovine serum (FBS),100 U/ml penicillin and […] streptomycin (Invitrogen) in a humidified 37° C. incubator with 5% CO2. Plasmid DNA expressing gp130-Fc-HA was transfected in the form of calcium phosphate precipitate into HEK293T cells (ten T75 flasks containing 5.5×10^6 cells). The supernatant was harvested sixty hours post transfection and centrifuged to remove residual cells and adjusted to pH 8.0. The supernatant was passed through a 0.45 μm filter. The gp130-Fc-HA tagged protein was immunoprecipitated using anti-HA affinity matrix (Roche Applied Bioscience).A one milliliter column containing anti-HA affinity matrix was equilibrated with 20 mM Tris-HCl, 0.1M NaCl, 0.1 mM EDTA (pH 8.0). The supernatant was applied to the equilibrated column and the column was washed successively with 20 mM Tris-HCl, 1M NaCl (pH 8.0). Bound protein was eluted with HA peptide dissolved in equilibration buffer. The column was regenerated with 0.1 M glycine (pH 2.0). Fractions containing recombinant protein were pooled, dialyzed against HBS buffer [10 mM HEPES (pH 7.4), 0.15 M NaCl, 3 mM EDTA, 0.005% P20] and concentrated by Centricon 30 (Amicon) centrifugation. Protein concentration was determined using Bradford protein assay reagent (Pierce), with bovine serum albumin (BSA, Fisher Scientific) as a standard. The purified recombinant gp130 protein was analyzed using SDS-PAGE and immunoblotting.
Surface plasmon resonance (SPR) analysis was performed using BIAcore T100. Recombinant gp130-Fc-HA was cross-linked to the flow cell on a carboxymethylated dextran matrix of a CM5 sensor chip (BIAcore) using standard amino group coupling methods according to the manufacturer's instructions. Sodium acetate (10 mM, pH 3.5) gave the best immobilization of the protein on the chip surface and unreactive groups on the chip were blocked by ethanolamine according to the manufacturer's instructions. Approximately 5000 resonance units (RU) of gp130-Fc-HA were cross-linked to the flow cell. HBS+1% DMSO were used in all buffers (running and sample) to avoid background response due to differences in buffer refractive index. For the equilibrium analysis, various concentrations of MDL-A, 1, and 2 were injected for a period of 2 min at a flow rate of 30 μl/min, in series, into flow cells containing covalently bound gp130-fc-HA and reference flow cell. Bound ligand (MDL-A, 1, and 2) in each assay was removed by passing 10 mM glycine (pH 2.2) over the chip surface. Biacore T100 Evaluation 2.0 was used for all interaction analyses. The steady-state equilibrium response (RUeq) was determined from the reference-subtracted sensogram. The kinetics parameter was calculated according to a 1:1 Langmuir binding model (A+B ? AB) by direct fitting of ligand binding sensor grams at multiple concentrations. The dissociation equilibrium constant is defined as dissociation constant (KD)=dissociation rate constant (kd)/association rate constant (ka). KD was determined by scattered analysis of equilibrium-state data obtained at different concentrations of analogues.
To examine the direct binding and calculation of equilibrium dissociation constant (KD) of MDL-A analogues with gp130 extracellular domain, surface plasmon resonance analysis was done. Protein was covalently cross linked to the dextran matrix of the biosensor chip CM5. Successively, various concentrations of MDL-A and MDL-A analogues were injected into the flow cells containing bound protein and no protein (reference). Interactions were monitored in real time and KD values were calculated by reference-substrated sensogram.
To examine the direct binding and calculate the equilibrium dissociation constant (KD) of MDL-A analogues with gp130 extracellular domain, surface plasmon resonance analysis was performed. Surface plasmon resonance (SPR) analysis was performed using a BIAcore T100. […]
On the technique in general: In SPR one partner is held on a chip, and binding of the other changes the refractive index at the surface.

Experiment [3] has as its system Stat3 phosphorylation (p-Tyr705) induced by IL-6 in LNCaP prostate cancer cells. The experiment is described as follows: IL-6 induced Stat3 phosphorylation in LNCaP cells, Western blot. Format: cell-based. Conditions: for inhibition of Stat3 phosphorylation induced by IL6: Western blot; for relative potency of inhibition of Stat3 phosphorylation: comparison in words. The protocol:
LNCaP prostate cancer cells were acquired from American Type Culture Collection. Cells were maintained in RPMI 1640 medium, 1× with 4.5 g/L L-glutamine, supplemented with 10% FBS, 100 U/ml penicillin and […] streptomycin (Invitrogen), in a humidified atmosphere of 5% CO2 at 37° C.
LNCaP prostate cancer cells were seeded in T75 flasks, grown to 50% confluence and serum-starved the following night. The cells were left untreated or were treated with MDL-A (100-400 μM), 1, 2 (5-40 μM) or DMSO in the absence of FBS. After 4 hours, the cells were stimulated with 12.5 ng/ml IL-6 (Cell Signaling Technology). The cells were then harvested at 30 minutes and washed with PBS and lysed in cold M-PER lysis buffer (Pierce) containing protease inhibitors (Sigma) and phosphatase inhibitors (Roche). Lysates were centrifuged at 14,000 rpm for 15 minutes at 4° C. and supernatants were collected and stored at −20° C. until further use.
Cell lysates were assayed for their protein concentrations using the Bradford protein assay reagent (Pierce), using BSA (Fisher Scientific) as the standard. Lysate samples were adjusted for the same protein concentration, approximately 5 μg of sample protein was loaded into each of the appropriate lanes. Protein samples were separated by SDS-PAGE and electrotransferred to PVDF membranes. The membranes were washed and blocked with 5% BSA in TBST (60 mM Tris-base, 120 mM NaCl, 0.1% Tween-20) for at least one hour and incubated with anti-phospho-STAT3 (p-Tyr705) antibody, anti-STAT3 antibody or anti-GAPDH antibody (all from Cell Signaling Technology) in 5% BSA in TBST overnight at 4° C. Blots were then washed three times in TBST and incubated with a horseradish peroxidase-conjugated goat anti-rabbit IgG secondary antibody (Cell Signaling Technology) in 5% BSA in TBST for 1 hour at room temperature. The bound antibody was detected using Enhanced Chemiluminescence detection reagents (Pierce) according to the manufacturer's instructions and chemiluminescence visualized using ECL Hyperfilm (Amersham).
Background: A western blot detects proteins with antibodies after separation by electrophoresis.

The test system is the same in experiment [4]. The experiment is described as above. Format: cell-based. As to conditions: IL-6 12.5 ng/ml 30 min.
Experiment [5] has as its system LIF mediated STAT3 phosphorylation. The experiment is described as follows: LIF induced phosphorylation of STAT3 (FIG. 34). Format: cell-based.
Experiment [6] deals with SUM-159 breast cancer cells tumor xenograft. The experiment is described as follows: Tumor xenograft model with SUM-159 breast cancer cells. The experiment is classed as in vivo, human. As to conditions: 100 mg/kg, SUM-159 xenograft, vehicle DMSO. From the text:
The effect of a representative compound, MDL-16, on tumor progression is compared to a group treated with vehicle (DMSO).

The test system of experiment [7] is IL6 mediated STAT3 phosphorylation. The experiment is described as follows: IL6 induced phosphorylation of STAT3 (FIG. 34). Format: cell-based.
Setting [8] is: gp130-Fc-HA on CM5 chip, BIAcore T100, read-out: SPR data (Kd μM).
The mark [9] stands for this setting: gp130 extracellular domain, Biacore evaluation software 2.0, read-out: KD.

“Also recorded” adds a separate entry of the source. Where two headings read alike, the source gives them in different places.

The term Kd denotes the constant that tells how readily two partners part at equilibrium.

With `CCCCc1ccc(O)c(CN2c3ccccc3[C@]3(O)C[C@H](COC(=O)c4ccccc4)O[C@H]23)c1O` (stereo in doubt) [MDL-5, ((2S,3AR)-8-(3-butyl-2,6-Dihydroxybenzyl)-3A-Hydroxy-3,3A,8,8A-Tetrahydro-2H-Furo[2,3-B]Indol-2-Yl)Methyl Benzoate], the “nuclear translocation of STAT3 activated by IL6” value in experiment [1] is “inhibits the nuclear translocation of STAT3”. The equilibrium dissociation constant (Kd) in experiment [2] (setting [8]) and in experiment [2] (setting [9]) was 37 µM each time. Besides, in experiment [2], the “binding in SPR direct binding assay, comparison in words” value (“binding in SPR direct binding assay” for short) was “stronger binding than analogues without extra attachments; also recorded: better binding than MDL-A; also recorded: better activity than MDL-A”. In addition, the “inhibition of Stat3 phosphorylation induced by IL6” value in experiment [3] (IL-6 12.5 ng/ml 30 min) is listed as “dose dependent inhibition”.

On to `CCCCn1nccc1C(=O)CN1c2ccccc2[C@]2(O)CCO[C@H]12` [MDL-3], for which the “binding in SPR direct binding assay” value in experiment [2] was “better binding than MDL-A”.

Regarding `CCCCc1ccc(O)c(Cn2cc(CCO)c3ccccc32)c1O` [MDL-6], the “inhibition of Stat3 phosphorylation induced by IL-6 at 40 µM” value (from here on “inhibition … at 40 µM”) in experiment [4] is “completely inhibit”. Besides, the Kd in experiment [2] (setting [8]) and in experiment [2] (setting [9]) was 49.5 µM each time. In addition, the “binding in SPR direct binding assay” value in experiment [2] is given as “better binding than MDL-A; also recorded: better activity than MDL-A”. In experiment [3], the “relative potency of inhibition of Stat3 phosphorylation” value is listed as “slightly more potent than MDL-5”.

Consider `CCCCc1ccc(O)c(Cn2cc(CCO)c3cc(C(=O)OC)ccc32)c1O` [MDL-7], for which, in experiment [4], the “inhibition … at 40 µM” value is given as “completely inhibit”. The Kd in experiment [2] (setting [8]) and in experiment [2] (setting [9]) was 40.8 µM throughout. Moreover, the “binding in SPR direct binding assay” value in experiment [2] was “better binding than MDL-A; also recorded: better activity than MDL-A”. In addition, in experiment [3], the “relative potency of inhibition of Stat3 phosphorylation” value is recorded as “slightly more potent than MDL-5”.

For `CCCCc1ccc(OC)c(Cn2cc(CCO)c3ccccc32)c1OC` [MDL-8], the Kd in experiment [2] (setting [8]) and in experiment [2] (setting [9]) was 41.4 µM in each case. Besides, the “binding in SPR direct binding assay” value in experiment [2] is given as “better binding than MDL-A; also recorded: better activity than MDL-A”.

For `CCCCc1ccc(O)c(Cn2cc(C[C@H](O)COC(=O)c3ccccc3)c3ccccc32)c1O` [MDL-16, (S)-3-(1-(3-Butyl-2,6-Dihydroxybenzyl)-1H-Indol-3Yl)-2-Hydroxypropyl Benzoate], the “LIF mediated STAT3 phosphorylation” value in experiment [5] was “not LIF mediated STAT3 phosphorylation”. For the same compound, in experiment [6], the “effect on tumor progression compared to vehicle” value was “significant effect on tumor progress compared to vehicle”. Besides, the “nuclear translocation of STAT3 activated by IL6” value in experiment [1] is listed as “inhibits the nuclear translocation of STAT3”. Further, the Kd came to 29 µM in experiment [2] (setting [8]); 29.7 µM in experiment [2] (values in running text and figure legend, read-out: dissociation constant (KD)). Further, in experiment [2], the “binding in SPR direct binding assay” value is “stronger binding than analogues without extra attachments; also recorded: strongest binding affinity; also recorded: better binding than MDL-A; also recorded: better activity than MDL-A”. For the same compound, in experiment [7], the “IL6 mediated STAT3 phosphorylation” value is listed as “inhibits IL6 mediated STAT3 phosphorylation”. The “inhibition … at 40 µM” value in experiment [3] (40 μM compound 4 hours, IL-6 12.5 ng/ml 30 min) is reported as “completely inhibits”. Besides, the “inhibition of Stat3 phosphorylation induced by IL6” value in experiment [3] (IL-6 12.5 ng/ml 30 min) is given as “dose dependent inhibition”. In addition, the “relative potency of inhibition of Stat3 phosphorylation” value in experiment [3] was “slightly more potent than MDL-5”.

Take `CCCCc1ccc(OC)c(CN2c3ccccc3[C@]3(O)C[C@H](COC(=O)c4ccccc4)O[C@H]23)c1OC` [MDL-17]: the Kd in experiment [2] (setting [8]) is 42.5 µM. Besides, the “binding in SPR direct binding assay” value in experiment [2] is “stronger binding than analogues without extra attachments; also recorded: better binding than MDL-A; also recorded: better activity than MDL-A”.
